From patent US20260130928A1, “COMBINATION OF AKR1C3 ACTIVATED ANTICANCER PRODRUG COMPOUND AND ANALGESIC DRUG FOR TREATING CANCER PATIENTS ACCOMPANIED BY PAIN” (ASCENTAWITS PHARMACEUTICALS, LTD., priority 2022, published 2026)

Test system: H460 cell line
Experiment: Cell proliferation inhibition by combining Naproxen or TH-3021 and AST-3424 in different sequence of administration (CTG)
Format: cell-based, human
Settings: Homo sapiens, AST-3424 alone 2 h as reference, H460
Experimental: The following are the different treatment methods. […] The plate was shaken gently to ensure uniform mixing, and placed in the incubator for 2 hours. […] The plate was shaken gently to ensure uniform mixing, and placed in the incubator for 2 hours. Subsequently, the plate was washed to remove the compound, and placed in the incubator at 37° C. with 5% CO2 for further 72 hours. […] The plate was shaken gently to ensure uniform mixing, and placed in the incubator for 2 hours. Subsequently, the plate was washed to remove the compounds, and placed in the incubator at 37° C. with 5% CO2 for 72 hours. […] The plate was shaken gently to ensure uniform mixing, and placed in the incubator for 2 hours. […] The plate was shaken gently to ensure uniform mixing, and placed in the incubator for 2 hours. Subsequently, the plate was washed to remove the compounds, and placed in the incubator at 37° C. with 5% CO2 for further 72 hours. […] The plate was shaken gently to ensure uniform mixing, and placed in the incubator for 2 hours. […] The plate was shaken gently to ensure uniform mixing, and placed in the incubator for 2 hours. Subsequently, the plate was washed to remove the compounds, and placed in the incubator at 37° C. with 5% CO2 for further 72 hours. b) Administrating single drug: after 24 hours of cell seeding, the compound was administered alone. […] The plate was shaken gently to ensure uniform mixing, and placed in the incubator at 37° C. with 5% CO2 for 2 hours. Subsequently, the compound was washed off, and each well was added with fresh medium. The plate was placed in the incubator at 37° C. with 5% CO2 for further 72 hours.

C[C@H](OP(=O)(N1CC1)N1CC1)c1ccc([N+](=O)[O-])c(Oc2cccc(C(=O)N(C)C)c2)c1 [AST-3424]
IC50 (NCI-H460, 2 h, Group 2: TH-3021 3 μM or Naproxen 400 μM + AST-3424 2 h simultaneously): 1.08 nM
IC50 (NCI-H460, Group 1: TH-3021 3 μM or Naproxen 400 μM 2 h pretreatment, washed off, then AST-3424 2 h): 0.88 nM
IC50 (NCI-H460, Group 3: AST-3424 2 h pretreatment, washed off, then TH-3021 3 μM or Naproxen 400 μM 2 h): 1 nM
IC50 (NCI-H460, Group 4: TH-3021 3 μM or Naproxen 400 μM 2 h pretreatment, not washed off, AST-3424 2 h cotreatment): 1.14 nM
